Reference: US20240115557A1, “INHIBITORS OF RNA-GUIDED NUCLEASES AND USES THEREOF” (The Brigham and Women's Hospital, Inc., priority 2022, published 2024)

Experiments:
SpCas9 [1] = biological target: T1, SpCas9 (Streptococcus pyogenes serotype M1, UniProt Q99ZW2); test: eGFP disruption assay, SpCas9, U2OS.eGFP.PEST cells; type: cell-based; conditions: for Activity in eGFP-disruption assay: result in words, relative to BRD7586; for SpCas9 eGFP disruption Rep1: replicate 1, raw readout; for SpCas9 eGFP disruption Rep2: replicate 2, raw readout
T1 sequence (Q99ZW2 whole entry): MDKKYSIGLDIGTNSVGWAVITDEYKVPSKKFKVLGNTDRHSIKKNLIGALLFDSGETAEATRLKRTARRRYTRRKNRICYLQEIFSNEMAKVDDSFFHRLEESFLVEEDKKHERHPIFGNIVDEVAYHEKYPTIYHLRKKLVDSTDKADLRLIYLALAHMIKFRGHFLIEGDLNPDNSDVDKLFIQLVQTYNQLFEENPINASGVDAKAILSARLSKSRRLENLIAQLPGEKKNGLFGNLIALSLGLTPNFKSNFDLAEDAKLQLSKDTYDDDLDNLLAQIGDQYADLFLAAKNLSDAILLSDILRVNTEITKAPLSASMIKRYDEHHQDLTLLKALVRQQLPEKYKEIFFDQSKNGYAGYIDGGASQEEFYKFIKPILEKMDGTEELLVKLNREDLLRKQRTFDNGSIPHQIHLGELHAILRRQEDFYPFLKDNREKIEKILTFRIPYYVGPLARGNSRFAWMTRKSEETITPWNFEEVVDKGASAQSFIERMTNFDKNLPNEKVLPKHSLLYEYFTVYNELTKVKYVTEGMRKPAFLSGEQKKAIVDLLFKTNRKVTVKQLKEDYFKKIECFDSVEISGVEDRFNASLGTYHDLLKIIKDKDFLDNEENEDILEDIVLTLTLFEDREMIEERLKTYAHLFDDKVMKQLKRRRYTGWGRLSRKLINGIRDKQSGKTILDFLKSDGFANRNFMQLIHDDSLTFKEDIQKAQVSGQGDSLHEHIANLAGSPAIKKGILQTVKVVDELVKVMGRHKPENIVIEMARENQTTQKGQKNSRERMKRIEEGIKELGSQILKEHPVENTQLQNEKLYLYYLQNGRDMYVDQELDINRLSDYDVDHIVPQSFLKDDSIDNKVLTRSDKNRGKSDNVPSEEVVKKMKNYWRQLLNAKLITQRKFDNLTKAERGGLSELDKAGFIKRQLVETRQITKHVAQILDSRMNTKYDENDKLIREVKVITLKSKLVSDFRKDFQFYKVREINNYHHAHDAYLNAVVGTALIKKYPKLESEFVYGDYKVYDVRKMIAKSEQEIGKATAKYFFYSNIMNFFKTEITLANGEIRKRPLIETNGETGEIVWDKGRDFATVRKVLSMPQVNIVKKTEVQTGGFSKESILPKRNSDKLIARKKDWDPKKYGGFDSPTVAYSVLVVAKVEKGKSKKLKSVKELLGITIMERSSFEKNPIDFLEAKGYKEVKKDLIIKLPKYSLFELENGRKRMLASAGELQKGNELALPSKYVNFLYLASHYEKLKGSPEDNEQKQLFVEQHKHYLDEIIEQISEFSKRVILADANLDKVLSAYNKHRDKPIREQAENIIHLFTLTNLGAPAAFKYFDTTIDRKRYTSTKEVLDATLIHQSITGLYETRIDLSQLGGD
Method in brief: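 Rescue of eGFP signal lost through Cas9-induced NHEJ indels serves as the inhibition read-out, after 24 h compound exposure (20 μM for hits, variable for dose-response). Editing was delivered by nucleofection into U2OS.eGFP.PEST cells as SpCas9/gRNA plasmids (300/30 ng) or RNP (10/12 pmol). Toxic and autofluorescent compounds were excluded.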

SpCas9 [2] = biological target: T1, SpCas9; test: HiBiT knock-in assay, SpCas9, HEK293T cells; type: cell-based; conditions: for Activity in HiBiT knock-in assay: result in words, relative to BRD7586
Description: Primary and secondary screening. The primary screen assayed a selection of unique chemical scaffolds derived from commercially available compounds and known bioactive molecular libraries (Table 7). Auto-fluorescent compounds were removed by a counter screen. Overall, the CAA was used to assay 122,409 small molecules with over 2,500 unique chemical scaffolds (FIG. 64F, Table 7). Of these compounds, 547 were selected as hits (Z score >3 in both replicates) for testing in orthogonal cell-based secondary assays. Hits were tested in duplicate in an eGFP disruption assay, wherein U2OS.eGFP.PEST cells^33 transfected with SpCas9 plasmid and eGFP-targeting gRNA plasmid were incubated with 20 μM of the compounds. In this assay, any compound that inhibited SpCas9 would rescue the loss of eGFP fluorescence. Here, toxic and auto-fluorescent compounds with a high GFP signal in cells were removed as false positives. […] Next, Applicants tested the 15 compounds in a luminescence-based gain-of-signal HiBiT knock-in assay, which involves SpCas9-mediated homology-directed tagging of GAPDH with a short peptide that luminesces upon complementation with a subunit derived from nanoluciferase.^34 Complementarily, the eGFP-disruption assay is fluorescence-based and involves error-prone DNA repair. As a counter-screen to remove false positives caused by cell death (viability <80%), the cell viability was measured after incubation.
Approximately 400,000 HEK293T cells were nucleofected with 400 ng of SpCas9 plasmid, 40 ng of GAPDH-targeting gRNA plasmid, and 40 pmol of single-strand oligodeoxynucleotide (ssODN) using SF Cell Line 4D-Nucleofector X Kit (Lonza) following the pulse program of DS-150. For RNP-based genome editing, 10 pmol of Cas9 and 12 pmol of gRNA were mixed and incubated for 5 min. Then, 20 pmol of ssODN was added. Cells were nucleofected with the resulting mixture using the same pulse program. Cells were then transferred to a 96-well plate at the density of 35,000 cells per well, and incubated with indicated amount of compounds for 24 h. Cell viability was measured using PrestoBlue reagent (Thermo) with a SpectraMax M5 (Molecular Devices) at the excitation and emission wavelength of 544 nm and 590 nm, respectively. Next, luminescence measurement was performed using the Nano-Glo HiBiT Lytic Detection System (Promega) according to the manufacturer's protocol with an EnVision Multilabel Plate Reader (PerkinElmer) at the integration time of 0.5 s per well. The resulting luminescence signals were normalized based on the cell viability.^34

SaCas9 [3] = biological target: T2, SaCas9 (Staphylococcus aureus, UniProt J7RUA5); test: eGFP secondary assay, SaCas9; type: cell-based; conditions: for Z score Avg Z: average of two replicates, Zscore>3 selected as hit; for Normalized Inhibition Rep 1: replicate 1; for Normalized eGFP Disruption Rep 1: replicate 1, % eGFP disruption; for Z score Rep1: replicate 1, Zscore>3 selected as hit; for Normalized Inhibition Rep 2: replicate 2; for Normalized eGFP Disruption Rep 2: replicate 2, % eGFP disruption; for Z score Rep 2: replicate 2, Zscore>3 selected as hit
T2 sequence (J7RUA5 1-1053): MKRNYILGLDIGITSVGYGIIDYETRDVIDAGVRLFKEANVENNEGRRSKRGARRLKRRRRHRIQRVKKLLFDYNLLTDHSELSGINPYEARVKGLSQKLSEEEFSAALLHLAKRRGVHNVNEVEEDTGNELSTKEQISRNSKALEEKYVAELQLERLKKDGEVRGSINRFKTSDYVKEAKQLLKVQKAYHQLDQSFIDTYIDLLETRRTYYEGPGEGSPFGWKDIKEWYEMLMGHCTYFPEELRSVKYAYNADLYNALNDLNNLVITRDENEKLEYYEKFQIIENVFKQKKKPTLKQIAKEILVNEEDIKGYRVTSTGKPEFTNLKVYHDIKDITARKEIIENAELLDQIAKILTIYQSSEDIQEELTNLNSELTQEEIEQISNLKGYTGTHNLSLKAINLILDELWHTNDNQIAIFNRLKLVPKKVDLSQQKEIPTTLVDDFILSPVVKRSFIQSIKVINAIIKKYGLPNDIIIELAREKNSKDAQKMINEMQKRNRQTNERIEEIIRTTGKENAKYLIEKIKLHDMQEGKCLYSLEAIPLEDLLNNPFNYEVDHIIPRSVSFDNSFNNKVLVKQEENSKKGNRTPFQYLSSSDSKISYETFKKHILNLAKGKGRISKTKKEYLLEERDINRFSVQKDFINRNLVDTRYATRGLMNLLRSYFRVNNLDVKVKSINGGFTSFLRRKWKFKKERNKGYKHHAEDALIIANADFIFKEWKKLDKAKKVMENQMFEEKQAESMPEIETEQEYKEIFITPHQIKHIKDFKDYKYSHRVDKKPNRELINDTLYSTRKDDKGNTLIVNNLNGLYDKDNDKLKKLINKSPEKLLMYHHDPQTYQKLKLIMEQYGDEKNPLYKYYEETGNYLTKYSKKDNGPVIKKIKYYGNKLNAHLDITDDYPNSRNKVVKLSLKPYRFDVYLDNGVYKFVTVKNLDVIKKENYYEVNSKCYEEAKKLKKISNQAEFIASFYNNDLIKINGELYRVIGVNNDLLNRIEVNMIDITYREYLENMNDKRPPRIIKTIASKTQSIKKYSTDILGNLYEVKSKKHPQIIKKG
Procedure: All hit compounds were moved forward into the secondary and tertiary screens, in which they were tested in cell-based assays. An eGFP assay is used to determine hits in cells as the secondary screen (eGFP assay).
The eGFP secondary assay evaluated the hits identified from the primary screen. The compounds were judged off the % eGFP disruption to determine the Cas9 inhibition and the assay Zscore. […] The hits from the secondary screens will be processed through tertiary screens of dose studies and HiBit Assay as detailed herein.

SaCas9 [4] = biological target: T2, SaCas9; test: Strand displacement assay, SaCas9 primary screen; type: biochemical; conditions: for Auto Zscore Rep 1 / Auto Zscore Rep 2 / Normalized Zscore Rep 1 / Normalized Zscore Rep 2: SaCas9 primary screen; for Auto Zscore Rep 1 / Normalized Zscore Rep 1: replicate 1; for Auto Zscore Rep 2 / Normalized Zscore Rep 2: replicate 2; for Normalized Zscore Rep 1 / Normalized Zscore Rep 2: weaker potential hits; for 3 sigma Hit: flag 1 = hit at 3 sigma
Method in brief: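 Cas9 RNP (1:1.2 protein:gRNA) pre-formed in 20 mM Tris-HCl pH 7.5, 100 mM KCl, 5 mM MgCl2, used at 10 nM (2× stock) with Alexa-Fluor 647 substrate/quencher at 1 nM/5 nM (2× stock). Reaction ran 2.5 h at 37°C; strand displacement read as fluorescence. Hits called by Z-score: 3–5σ weak, >5σ strong.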

SpCas9 [5] = biological target: T1, SpCas9; test: Strand displacement assay (SDA) / cumulative activity assay (CAA), SpCas9 primary screen; type: biochemical; conditions: Primary Screen (150 min)
Method in brief: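 SpCas9:gRNA RNP in 20 mM Tris-HCl pH 7.5, 100 mM KCl, 5 mM MgCl2 was used at 10 nM (2× stock) with Alexa Fluor 647-labelled substrate and excess quencher strand (1 nM and 5 nM, 2× stocks). Fluorescence was read after 2.5 h at 37 °C, where cleavage lets the quencher strand anneal.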

[6] = Cas9 = lower control, Ctrl = upper control
[7] = replicate 1, normalized, lower control about 0, upper control about 1
[8] = replicate 2, normalized, lower control about 0, upper control about 1

Row | Structure (SMILES) | eGFP disruption-% inhibition (SpCas9 [1]) | Z score Rep1 (SpCas9 [1]; replicate 1) | Z socre Rep2 (SpCas9 [1]; replicate 2) | Hibit assay-% inhibition (SpCas9 [2]) | SpCas9 eGFP disruption Rep1 (SpCas9 [1]; [6]) | Normalized Z rep1 (SpCas9 [1]; [7]) | SpCas9 eGFP disruption Rep2 (SpCas9 [1]; [6]) | Normalized Z rep2 (SpCas9 [1]; [8]) | Z score Avg Z (SaCas9 [3]) | Normalized Inhibition Rep 1 (SaCas9 [3]) | Normalized eGFP Disruption Rep 1 (SaCas9 [3]) | Z score Rep1 (SaCas9 [3]) | Normalized Inhibition Rep 2 (SaCas9 [3]) | Normalized eGFP Disruption Rep 2 (SaCas9 [3]) | Z score Rep 2 (SaCas9 [3]) | other results
1 | O=C(CCSc1ccc(Cl)cc1)Nc1nc(-c2ccc(Br)cc2)cs1 [BRD0033] |  |  |  |  |  |  |  |  |  |  |  |  |  |  |  | Activity in eGFP-disruption assay (SpCas9 [1]): inactive; Activity in HiBiT knock-in assay (SpCas9 [2]): inactive
2 | COc1ccc(Cc2nn3c(-c4cccnc4)nnc3s2)cc1OC [Compound D727-0069] | 24.03% | −2.26 | −1.55 | 8.56% |  |  |  |  |  |  |  |  |  |  |  | Normalized Z rep1 (SpCas9 [1]; replicate 1): −0.31; SpCas9 eGFP disruption Rep1 (SpCas9 [1]): 59.543; Normalized Z rep2 (SpCas9 [1]; replicate 2): −0.17; SpCas9 eGFP disruption Rep2 (SpCas9 [1]): 58.398
3 | COc1ccc(Cc2nnc3sc(Cc4ccc(OC)c(OC)c4)nn23)cc1 [Compound D727-0165] | 25.03% | 1.09 | −0.43 | 22.01% | 70.62 | 0.15 | 61.783 | −0.05 |  |  |  |  |  |  |  | 
4 | c1ccc(-c2nnc3sc(-c4cc5ccccc5o4)nn23)nc1 [Compound D727-0535] | 18.61% | −0.99 | −2.07 | 18.11% |  |  |  |  |  |  |  |  |  |  |  | Normalized Z rep1 (SpCas9 [1]; replicate 1): −0.14; SpCas9 eGFP disruption Rep1 (SpCas9 [1]): 63.743; Normalized Z rep2 (SpCas9 [1]; replicate 2): −0.22; SpCas9 eGFP disruption Rep2 (SpCas9 [1]): 56.828
5 | Cc1occc1-c1nnc2sc(-c3c[nH]c4ccccc34)nn12 [Compound D727-0786] |  | 0.48 | 1.91 |  | 68.596 | 0.07 | 68.839 | 0.20 | 5.097 | 57.282 | 42.718 | 8.674 | 12.722 | 87.278 | 1.519 | 
6 | NC(=O)c1sc(=S)n(Cc2ccccc2)c1N [Compound F128-0030] |  |  |  |  |  |  |  |  | 8.704 | 70.438 | 29.562 | 9.005 | 67.693 | 32.307 | 8.402 | Auto Zscore Rep 1 (SaCas9 [4]): −0.4371; Auto Zscore Rep 2 (SaCas9 [4]): 0.1928; Normalized Zscore Rep 1 (SaCas9 [4]): 0.187; Normalized Zscore Rep 2 (SaCas9 [4]): 0.143; 3 sigma Hit (SaCas9 [4]): 1
7 | O=C(CCSc1ccc(Cl)cc1)Nc1nc(-c2ccncc2)cs1 [Compound F2537-0908] |  |  |  |  |  |  |  |  |  |  |  |  |  |  |  | Activity in eGFP-disruption assay (SpCas9 [1]): significantly lower inhibitory activity; Activity in HiBiT knock-in assay (SpCas9 [2]): significantly lower inhibitory activity
8 | O=C(CCS(=O)(=O)c1ccccc1)Nc1nc(-c2ccncc2)cs1 [Compound G786-1264] | 41.72% | 3.83 | 9.69 | 72.63% | 82.717 | 0.37 | 83.951 | 0.42 |  |  |  |  |  |  |  | Average Normalized Z score (SpCas9 [5]): 0.06; avg z score primary (SpCas9 [5]): 5.95; Normalized Z score 1 (SpCas9 [5]; replicate 1): 0.06; Normalized Z score 2 (SpCas9 [5]; replicate 2): 0.06; % GFP+, Rep 1 (SpCas9 [1]; eGFP assay, replicate 1): 82.72%; Z score Rep1 (SpCas9 [1]; eGFP assay, replicate 1): 3.83; % GFP+, Rep 2 (SpCas9 [1]; eGFP assay, replicate 2): 83.95%
9 | O=C(NCCCN1CCC(N2CCCCC2)CC1)C1=Cc2sc3c(c2CS1)CCCC3 [E722-2652] |  |  |  |  |  |  |  |  | 5.750 | 43.522 | 56.478 | 5.564 | 47.827 | 52.173 | 5.937 | Auto Zscore Rep 1 (SaCas9 [4]): 1.567; Auto Zscore Rep 2 (SaCas9 [4]): 0.3807; Normalized Zscore Rep 1 (SaCas9 [4]): 0.4606; Normalized Zscore Rep 2 (SaCas9 [4]): 0.3192; 3 sigma Hit (SaCas9 [4]): 1; 5 sigma Hit (SaCas9 [4]; flag 1 = hit at 5 sigma): 1
10 | CNC(=O)c1sc(=S)n2c1[nH]c(=O)c1cc(Br)ccc12 [F083-0285] |  | −1.78 | −4.46 |  |  |  |  |  | 3.318 | 30.708 | 69.292 | 3.635 | 22.819 | 77.181 | 3.002 | Normalized Z rep1 (SpCas9 [1]; replicate 1): −0.25; SpCas9 eGFP disruption Rep1 (SpCas9 [1]): 61.126; Normalized Z rep2 (SpCas9 [1]; replicate 2): −0.48; SpCas9 eGFP disruption Rep2 (SpCas9 [1]): 49.642
11 | C=CC1=C(C(=O)O)N2C(=O)[C@@H](NC(=O)C(=NOCC(=O)O)c3csc(N)n3)[C@H]2SC1.O [SAM001246816] |  | 0.17 | −1.15 |  | 76.555 | 0.03 | 74.015 | −0.12 | 3.731 | 37.117 | 62.883 | 4.745 | 21.891 | 78.109 | 2.717 | 
